Results published in patent US20070014825A1, “Ant bait attractive to many species of ants and useful in their rapid control” (priority 2005, published 2007).

Experiments:
ants = experiment: Repulsion or loss of attractant activity of bait additives to ants; format: in vivo; conditions: trace amounts added to ant baits
Carpenter Ant = experiment: Liquid carpenter ant bait placed on ant trail: distance traveled after ingestion and kill; format: in vivo, Carpenter Ant (Genus Componatus)
Method: The above liquid carpenter ant bait was not formulated with a fragrance or dye, although both these additives may can be added. Soak the liquid ant bait in an absorbent wick, cotton ball or tissue and place on ant trail.
A carpenter ant ingested bait 7a for approximately 20 minutes, walked approximately 1.5-2 feet and was killed. Another carpenter ant ingested bait 7b for approximately 20 minutes, walked 20-30 feet, disappearing in the brush.
The ant baits of the above examples were tested in their natural environment where the particular ants were found. The baits were distributed in small amounts in the areas where the ants were seen to be active. All of the baits were readily accepted by the various ants. Gradually in all of the examples the numbers of ants in the treated areas was reduced to the point that none could be found.

| SMILES | Loss in attractant activity of ant bait (ants) | Time after Bait Ingestion at which ant disappeared (kill not observed) (Carpenter Ant; Level of toxicant in Bait 0.2%) | Time of Ingestion of Bait by Ant (Carpenter Ant; Level of toxicant in Bait 0.2%) | Distance Traveled (Carpenter Ant; Level of toxicant in Bait 0.2%, ant disappeared) | Nest Killed (Carpenter Ant; Level of toxicant in Bait 0.2%, entire nest killed) | Distance Traveled (Carpenter Ant; Level of toxicant in Bait 1.2%) | Nest Killed (Carpenter Ant; Level of toxicant in Bait 1.2%) | Time Ant Killed after Bait Ingestion (Carpenter Ant; Level of toxicant in Bait 1.2%) | Time of Ingestion of Bait by Ant (Carpenter Ant; Level of toxicant in Bait 1.2%) |
| --- | --- | --- | --- | --- | --- | --- | --- | --- | --- |
| O=c1[nH]sc2ccccc12 [1,2-benzisothiazolin-3-one] | Little or no loss in attractant activity |  |  |  |  |  |  |  |  |
| COP(=O)(NC(C)=O)SC (stereo not drawn) [acephate] |  | after 35-40 minutes | ˜20 minutes | 20-30 feet | Yes | 1.5-2 feet | No | ˜22-23 minutes | ˜20 minutes |
